The subject of one series is Tg4510 mice. Description: Morris water maze test in Tg4510 mice. The series is classed as in vivo. The settings on record: 12 mg/kg, 4-weeks treatment, versus vehicle-treated Tg4510 mice. As for the experimental part:
(§1) Female Tg4510 and control mice were purchased from the Jackson Laboratory (Bar Harbor, Me.). All mice were examined and weighed prior to initiation of the study to ensure adequate health and suitability and were caged under controlled temperature (20-23° C.) and relative humidity (maintained around 50%). All tests were performed during the animal's light cycle phase. Mice received every-other-day injections of either vehicle or compound 390 (12 mg/kg) in the following groups: (a) wild-type (WT) mice receiving vehicle (n=16); (b) Tg4510 mice receiving vehicle (n=15) and (c) Tg4510 mice receiving DL390 (12 mg/kg; n=15)
The test was performed in a circular tank, measuring 48″ in diameter. Extra-maze cues were mounted around the water tank. On 5 consecutive days of the week, test sessions were conducted with the platform submerged approximately 1.3 cm below the surface of the water. On each day, there were 4 trials, 60 s long. Approximately 15 min elapsed between each trial. On the fifth day of acquisition training, the last trial (out of 4) consisted of 60 s without the platform.

Series [1] in a line: Glucose tolerance test after 2 weeks of chronic dosing. The class given is in vivo, male C57BL/6J mice. The settings on record: rapamycin 8 mg/kg, compound 390 12 mg/kg every other day, male mice. As for the experimental part:
(§2) Fortyfive C57BL/6J male mice, housed three per cage, were weighed and their body composition was measured with an EchoMRI 3-in-1 system. […] Mice received every-other-day injections of either vehicle, rapamycin (8 mg/kg), or compound 390 (12 mg/kg). A glucose tolerance test was performed after 2 weeks (morning after the 8th injection). A pyruvate tolerance test was performed after 3 weeks. Glucose stimulated insulin secretion assay was performed after 4 weeks and additional blood was collected for whole blood analysis. Body composition was measured on day −2 and day 31.
Mice were fasted overnight for 16 hours and then injected with either glucose (1 g/kg) or pyruvate (2 g/kg) intraperitoneally. For glucose and pyruvate tolerance tests, small blood samples were taken from a tail vein nick at time intervals and read using a Bayer Contour blood glucose meter and test strips. For glucose-stimulated insulin secretion, blood glucose levels were read using a glucometer and then 50 μL of blood was collected into a heparinized tube immediately prior to and 15 minutes following glucose administration. Insulin levels were determined using a Mouse Insulin ELISA kit (Crystal Chem).

For the next series, the target named is mTORC2 complex (Mus musculus, UniProt P26883+Q9JLN9). The series can be described thus: mTORC2 assembly: immunoprecipitation of Rictor from liver and immunoblotting for mTOR. The class given is in vivo, male C57BL/6J mice. Particulars: liver, four weeks; rapamycin 8 mg/kg, compound 390 12 mg/kg i.p. every other day. On the procedure: as §2
For another series, the target named is T1, mTORC1 (Homo sapiens, UniProt P42345+P62942).
T1 construct: endogenous in cells; host or cells: PC3 cells
Description: AlphaLISA SureFire in PC3 cells, phosphorylation of S6 at Ser240/Ser244 (mTORC1 inhibition, selectivity ratios). The series is classed as cell-based. On the procedure: PC3 cells were maintained in F12K media (ATCC/GIBCO, Cat# ATCC 30-2004) supplemented with additional 10% FBS (Gemini, cat#100-106), 1% Penicillin/Streptomycin (Life Technologies, cat #15140-122), and 2 mM L-Glutamine (Life Technologies, cat#25030) and cultured at 37° C. For AlphaLISA experiments, cells were seeded in 96-well plates for 24 hours and treated at various concentrations of compound (from approx. 8 fM to 10 μM) for 24 hours. Cells were harvested by lysis in the buffer supplied with the AlphaLISA kit. […] Cells from plates were lysed and incubated for 10 min at room temperature while shaking. Cell lysates were incubated with acceptor mix for 2 hours at room temperature; the donor mix was then added and the resulting solution was incubated for 2 hours at room temperature. AlphaLISA® signal was determined on a Fusion-Alpha FP HT (Perkin Elmer). Percent inhibition was calculated by comparison to the highest inhibition value obtained in the response-concentration curve. IC50s were calculated using Prism software.

For series [2], the system named is autophagy markers (pULK/ULK, Beclin-1, Vps34, LC3B, p62). The series can be described thus: Autophagy markers in brain of Tg4510 mice. The series is classed as in vivo. Particulars: 12 mg/kg i.p., 4 weeks. On the procedure: as §1
A number of autophagy markers were measured both in the cortex and hippocampus tissue to assess the status of the autophagic clearance mechanism across the three study groups. Specifically, pULK/ULK, Beclin-1, Vps34, LC3B and p62 were measured using the appropriate antibodies (Cell Signaling Technology).

The target of a further series is T2, mTORC2 (Homo sapiens, UniProt P42345+P62942).
T2 construct: endogenous in cells; host or cells: PC3 cells
The series can be described thus: AlphaLISA SureFire Akt 1/2/3 in PC3 cells, phosphorylation of Akt at Ser473 (mTORC2 inhibition). The series is classed as cell-based.

“And” between values parts separate entries of the source, which are not always exact repeats. Equal values may be shown once.

mTORC2 complex, sequence (P26883 2-108 limits assumed, other chains not shown): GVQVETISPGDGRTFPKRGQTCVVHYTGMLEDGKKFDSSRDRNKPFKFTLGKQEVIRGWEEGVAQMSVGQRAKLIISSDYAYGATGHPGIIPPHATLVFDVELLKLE
T2 sequence (P62942 2-108 limits assumed, other chains not shown): as the sequence (P26883 2-108 limits assumed, other chains not shown) above, with T49M, I75T, S78P counted along it

In the case of `CO[C@H]1CC2CC[C@@H](C)[C@@](O)(O2)C(=O)C(=O)N2CCCC[C@H]2C(=O)O[C@H]([C@@H](C)CC2CCC(O)CC2)CC(=O)[C@@H](C)/C=C(\C)[C@H](O)[C@H](O)C(=O)[C@@H](C)C[C@H](C)/C=C/C=C/C=C/1C` (some centres unmarked) [compound 390, 27-O-Desmethyl-39-Desmethoxy Rapamycin], the “behavioral performance, total distance travelled during acquisition days” value with Tg4510 mice is reported as “strong trends of behavioral improvement”. Further, the glucose tolerance test result in series [1] (after 2 weeks) was “identical to the vehicle-receiving animals”. The fasting hyperglycemia entry in series [1] (chronic dosing) is on record as “does not cause”. On mTORC2 complex, the “integrity of hepatic mTORC2 complex assembly” value is listed as “no effect upon hepatic mTORC2 assembly”. Moreover, on mTORC1 (AlphaLISA IC50 ratios), the “improvement of mTORC1 over mTORC2 selectivity compared to rapamycin (average)” value amounted to 51 fold and the “improvement of mTORC1 over mTORC2 selectivity compared to rapamycin (range)” value is listed as 52-63 fold. In addition, the “Average IC50^mTORC2/IC50^mTORC1” value at mTORC1 (average of four replicates, 24 h) is 429.90. Further, at mTORC1 (single replicates #1-#4 (N = 3 each), mTORC2 IC50 of the measurement divided by average mTORC1 IC50, 24 h, listed as nID390), the “IC50^mTORC2/IC50^mTORC1” value was 477.07 and 533.79 and 445.85 and 262.89. In series [2], the “Beclin-1 activity (initiation phase of autophagy)” value is recorded as “nearly full restoration of Beclin-1 activity”; the “ULK1 phosphorylation (induction phase of autophagy)” value was “reduction of ULK1 phosphorylation”; the “accumulated LC3B-II levels (maturation and lysosomal clearance)” value is “substantial reduction”; the “accumulated p62 levels (maturation and lysosomal clearance)” value was “substantial reduction”. Moreover, in series [2], the “autophagy in the brain, all stages” value was “substantial and statistically significant upregulation”. The “lower inhibition of mTORC2 compared to rapamycin” value at mTORC2 was approximately 150 fold.

The values above are taken from patent US20180258100A1, “RAPAMYCIN ANALOGS SHOWING IMPROVED mTORC1 SPECIFICITY” (priority 2015, published 2018).
